From ChEMBL document CHEMBL1155423, “Unprecedented NES non-antagonistic inhibitor for nuclear export of Rev from Sida cordifolia” (Bioorg Med Chem Lett, 2010)

Assay: Inhibition of CRM1 interaction with HIV1 HA-tagged Rev in HeLa cells assessed as inhibition of Rev nuclear export by indirect fluorescent antibody technique
Format: cell-based

SMILES	IC50 [µM]
CCCCC/C=C\C=C\C(O)CCCCCCCC(=O)O (configuration not stated)	7.2
CCCCC/C=C\C=C\C(O)CCC(=O)O (configuration not stated)	> 30
CCCCC/C=C\C=C\C(O)CCCCC(=O)O (configuration not stated)	> 30
CC(O)CCCCCCCC(=O)O (configuration not stated)	20.8
CCCCC/C=C\C=C\C(C)O (configuration not stated)	> 30
CCCCCCCCCC(O)CCCCCCCC(=O)O (configuration not stated)	> 30
CCCCC/C=C\C=C\CCCCCCCCC(=O)O	15
